In ChEMBL document CHEMBL1156145, “1-(2-Aminoethyl)-3-(arylsulfonyl)-1H-pyrrolopyridines are 5-HT(6) receptor ligands” (Bioorg Med Chem Lett, 2009):

Key:
[1] = target: T1, 5-hydroxytryptamine receptor 6 (Homo sapiens, UniProt P50406); assay: Agonist activity at human HT6 receptor expressed in human HeLa cells assessed as intracellular cAMP level by radioimmunoassay relative to serotonin; assay type: functional, cell-based
[2] = target: T1, 5-hydroxytryptamine receptor 6; assay: Displacement of [3H]LSD from human HT6 receptor expressed in HeLa cells at 1 uM relative to serotonin; assay type: cell-based
[3] = target: T1, 5-hydroxytryptamine receptor 6; assay: Antagonistic activity at human HT6 receptor expressed in HeLa cells assessed as intracellular cAMP level by radioimmunoassay; assay type: functional, cell-based
[4] = target: T1, 5-hydroxytryptamine receptor 6; assay: Displacement of [3H]LSD from human HT6 receptor expressed in human HeLa cells; assay type: cell-based
[5] = target: T1, 5-hydroxytryptamine receptor 6; assay: Antagonistic activity at human HT6 receptor expressed in HeLa cells assessed as intracellular cAMP level by radioimmunoassay relative to serotonin; assay type: functional, cell-based
[6] = target: T1, 5-hydroxytryptamine receptor 6; assay: Agonistic activity at human HT6 receptor expressed in HeLa cells assessed as intracellular cAMP level by radioimmunoassay

T1 sequence (P50406 whole entry): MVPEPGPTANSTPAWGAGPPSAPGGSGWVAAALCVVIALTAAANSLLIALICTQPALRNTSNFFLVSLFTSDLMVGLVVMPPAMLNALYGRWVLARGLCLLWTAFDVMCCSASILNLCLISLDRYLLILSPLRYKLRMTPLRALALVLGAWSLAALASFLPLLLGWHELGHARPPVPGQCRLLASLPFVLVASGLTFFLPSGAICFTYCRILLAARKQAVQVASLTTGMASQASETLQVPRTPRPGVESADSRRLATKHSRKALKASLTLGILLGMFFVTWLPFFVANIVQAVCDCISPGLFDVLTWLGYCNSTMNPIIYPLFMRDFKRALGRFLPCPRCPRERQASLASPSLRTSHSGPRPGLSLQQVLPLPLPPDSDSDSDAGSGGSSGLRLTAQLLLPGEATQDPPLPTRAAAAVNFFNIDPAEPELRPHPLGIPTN

SMILES	Emax [1] [%]	Ki [4] [nM]	also measured
CN(C)CCn1cc(S(=O)(=O)c2ccccc2)c2cccnc21	94	–	–
CN(C)CCn1cc(S(=O)(=O)c2ccccc2)c2cnccc21	–	–	Activity [2]: 39%
COc1ccc2c(n1)c(S(=O)(=O)c1cccc3ccccc13)cn2CCN(C)C	–	1.7	IC50 [3]: 295 nM; Emax [5]: 100%
CN(C)CCn1cc(S(=O)(=O)c2ccccc2)c2cc(Cl)ncc21	–	–	Activity [2]: 55%
CN(C)CCn1cc(S(=O)(=O)c2cccc(F)c2)c2cccnc21	100	–	–
CN(C)CCn1cc(S(=O)(=O)c2ccccc2)c2ncccc21	–	368	–
COc1ccc2c(n1)c(S(=O)(=O)c1cccc(F)c1)cn2CCN(C)C	–	11.3	IC50 [3]: 41 nM; Emax [5]: 91%
NCCn1cc(S(=O)(=O)c2cccc(F)c2)c2ncccc21	51	76	EC50 [6]: 823 nM
NCCn1cc(S(=O)(=O)c2cccc(Cl)c2)c2ncccc21	56	35	EC50 [6]: 197 nM
NCCn1cc(S(=O)(=O)c2c(Cl)nc3sccn23)c2ncccc21	–	42	–
CC(=O)c1ccc2c(n1)c(S(=O)(=O)c1ccc(Br)cc1)cn2CCN(C)C	–	3.9	IC50 [3]: 385 nM; Imax [5]: 100%
CC(=O)c1ccc2c(n1)c(S(=O)(=O)c1ccccc1)cn2CCN(C)C	–	56	–
Cc1cccc(S(=O)(=O)c2cn(CCN)c3cccnc23)c1	–	46	–
